The values that follow come from patent US12583866B2, “Pyrido[2,3-b][1,4]oxazines or tetrahydropyrido[2,3-b][1,4]oxazepines as IAP antagonists” (BEIGENE, LTD., priority 2020, dated 2026).

Assay [1] addresses T1, recombinant human cIAP1-BIR3 protein (Homo sapiens, UniProt Q13490).
T1 construct: recombinant human cIAP1-BIR3 protein; purchased Reaction biology APT-11-370
Briefly: Recombinant human c-IAP1-BIR3 biochemical assay (HTRF, peptide displacement). The conditions noted are these: 1.2 nM cIAP1-BIR3, 3 nM AbuRPF-K(5-Fam)-NH2 peptide, read-out: Protein binding IC50 (nM) c-IAP1. The method, then:
I. Recombinant human c-IAP1-BIR3 biochemical assay
(§1) Compounds disclosed herein were tested for blocking of recombinant human cIAP1-BIR3 protein (Cat: APT-11-370, Reaction biology) with its peptide in an assay based on Homogeneous Time Resolved Fluorescence. 1.2 nM recombinant human cIAP1-BIR3 protein was pre-incubated with a serial dilution of compounds disclosed herein (maximum concentration is 10 uM, 4-fold serially diluted, 10 points) at room temperature for 1 hour in an assay buffer containing 20 mM HEPES, pH 7.5, 50 mM NaCl, 0.005% Tween-20, 1 mM DTT. Then 3 nM AbuRPF-K (5-Fam)-NH2 (Cat: 709702, GL Biochem) was added to plate incubated at room temperature for 1 hour. Mab Anti-6His Tb cryptate Gold (Cat: 61HI2TLB, Cisbio Bioassays) was added to plate and further incubated at room temperature for 1 hour. The HTRF signals (ex337 nm, em520 nm/490 nm) were read on BMG PHERAstar FS instrument. The inhibition percentage of cIAP1-BIR3 interaction with its peptide in presence of increasing concentrations of compounds was calculated based on the ratio of fluorescence at 520 nm to that at 490 nm. The IC50 for each compound was derived from fitting the data to the four-parameter logistic equation by Dotmatics and summarized in table 1.
(In general: Time-resolved FRET reads energy transfer from a long-lived donor to a nearby acceptor.)

Assay [2] concerns the target T2, recombinant human XIAP-BIR3 protein (Homo sapiens, UniProt P98170).
T2 construct: recombinant human XIAP-BIR3 protein; purchased Reaction biology APT-11-374
Briefly: Recombinant human XIAP-BIR3 biochemical assay (HTRF, peptide displacement). The note with it: 3.7 nM XIAP-BIR3, 7.6 nM AbuRPF-K(5-Fam)-NH2 peptide, read-out: Protein binding IC50 (nM) XIAP. As to the method: III. Recombinant Human XIAP-BIR3 Biochemical Assay
as §1, with “human XIAP-BIR3” for “human cIAP1-BIR3”, “(Cat: APT-11-374,” for “(Cat: APT-11-370,”, “Fluorescence. 3.7” for “Fluorescence. 1.2”, “Then 7.6” for “Then 3”, “nM AbuRPF-K(5-Fam)-NH2” for “nM AbuRPF-K (5-Fam)-NH2”, “of XIAP-BIR3” for “of cIAP1-BIR3”

In assay [3] the target is T3, recombinant human cIAP2-BIR3 protein (Homo sapiens, UniProt Q13489).
T3 construct: recombinant human cIAP2-BIR3 protein; purchased Reaction biology APT-11-372
The assay is described as follows: Recombinant human c-IAP2-BIR3 biochemical assay (HTRF, peptide displacement). The conditions noted are these: 3.7 nM cIAP2-BIR3, 3.7 nM AbuRPF-K(5-Fam)-NH2 peptide, read-out: Protein binding IC50 (nM) c-IAP2. The method, then:
II. Recombinant Human c-IAP2-BIR3 Biochemical Assay
as §1, with “human cIAP2-BIR3” for “human cIAP1-BIR3”, “(Cat: APT-11-372,” for “(Cat: APT-11-370,”, “Fluorescence. 3.7” for “Fluorescence. 1.2”, “Then 3.7” for “Then 3”, “nM AbuRPF-K(5-Fam)-NH2” for “nM AbuRPF-K (5-Fam)-NH2”, “of cIAP2-BIR3” for “of cIAP1-BIR3”

Molecules are shown by their SMILES. Where a name gives a salt, the structure may show the parent alone.

T3 sequence (Q13489 238-349 limits assumed): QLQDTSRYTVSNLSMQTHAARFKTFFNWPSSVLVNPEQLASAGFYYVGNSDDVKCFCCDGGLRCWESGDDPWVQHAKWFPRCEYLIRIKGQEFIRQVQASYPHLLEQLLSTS
T2 sequence (P98170 241-356 limits assumed): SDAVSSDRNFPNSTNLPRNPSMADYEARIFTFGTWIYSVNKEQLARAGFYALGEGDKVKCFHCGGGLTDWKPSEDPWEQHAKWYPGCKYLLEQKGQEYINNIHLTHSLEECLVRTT
T1 sequence (Q13490 253-363 limits assumed): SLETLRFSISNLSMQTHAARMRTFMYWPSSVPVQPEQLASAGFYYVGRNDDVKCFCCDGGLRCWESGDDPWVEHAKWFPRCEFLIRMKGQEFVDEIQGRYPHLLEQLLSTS

Regarding `C[C@@H]1CN(CC(=O)N2c3cc(Cc4ccc(F)cc4)c(-c4ccc(F)cc4)nc3OC[C@@H]2C)[C@@H](CN2[C@H](C)COC[C@H]2C)CN1` [Compound 113], the figures for the IC50 in assay [1], in assay [2] and in assay [3] were 0.25 nM, 5.4 nM and 0.36 nM, respectively.
For `C[C@@H]1CN(CC(=O)N2CCOc3nc(Br)c(Cc4ccc(F)cc4)cc32)[C@@H](CN2CCOC[C@H]2C)CN1` [Compound 4, 1-(6-bromo-7-(4-fluorobenzyl)-2,3-dihydro-1H-pyrido[2,3-b][1,4]oxazin-1-yl)-2-((2R,5R)-5-methyl-2-(((R)-3-methylmorpholino)methyl)piperazin-1-yl)ethan-1-one] the same measures were 0.5 nM, 17 nM and 0.92 nM.
The corresponding values for `C[C@@H]1CN(CC(=O)N2c3cc(Cc4ccc(F)cc4)c(CO)nc3OC[C@@H]2C)[C@@H](CN2CCOC[C@H]2C(F)F)CN1` [Compound 55] are 1.3 nM, 34 nM and 1.9 nM.
The corresponding values for `CC(=O)Nc1nc2c(cc1Cc1ccc(F)cc1)N(C(=O)CN1C[C@@H](C)NC[C@@H]1CN1[C@H](C)COC[C@H]1C)[C@@H](C)CO2` [Compound 116] are 0.16 nM, 4.3 nM and 0.24 nM.
Turning to `CC(C)OC[C@@H]1COCCN1C[C@H]1CN[C@H](C)CN1CC(=O)N1c2cc(Cc3ccc(F)cc3)c(C(N)=O)nc2OC[C@@H]1C` [Example 62, (S)-7-(4-fluorobenzyl)-1-(2-((2R,5R)-2-(((S)-3-(isopropoxymethyl)morpholino)methyl)-5-methylpiperazin-1-yl)acetyl)-2-methyl-2,3-dihydro-1H-pyrido[2,3-b][1,4]oxazine-6-carboxamide], the values for the IC50 in assay [1], in assay [2] and in assay [3] were 0.33 nM, 8.1 nM and 0.73 nM, respectively.
Take `CC1CN(C(=O)CN2C[C@@H](C)NC[C@@H]2CN2CCOC[C@H]2C)c2cc(Cc3ccc(F)cc3)cnc2O1` (stereo partly drawn) [Compound 10, 1-(7-(4-fluorobenzyl)-3-methyl-2,3-dihydro-1H-pyrido[2,3-b][1,4]oxazin-1-yl)-2-((2R,5R)-5-methyl-2-(((R)-3-methylmorpholino)methyl)piperazin-1-yl)ethan-1-one]: the IC50 in assay [1] stood at 14 nM; in assay [2], 264 nM; in assay [3], 52 nM.
With `C[C@@H]1CN(CC(=O)N2CCOc3nc(C#N)c(Cc4ccc(F)cc4)cc32)[C@@H](CN2CCOC[C@H]2C)CN1` [Compound 1, 7-(4-fluorobenzyl)-1-(2-((2R,5R)-5-methyl-2-(((R)-3-methylmorpholino)methyl)piperazin-1-yl)acetyl)-2,3-dihydro-1H-pyrido[2,3-b][1,4]oxazine-6-carbonitrile formate], the IC50 is 0.5 nM in assay [1], 26 nM in assay [2] and 0.9 nM in assay [3].
The corresponding values for `C[C@@H]1CN(CC(=O)N2c3cc(Cc4ccc(F)cc4)c(CO)nc3OC[C@@H]2C)[C@@H](CN2CCOCC23CC3)CN1` [Compound 50, 2-((2R,5R)-2-((7-oxa-4-azaspiro[2.5]octan-4-yl)methyl)-5-methylpiperazin-1-yl)-1-((S)-7-(4-fluorobenzyl)-6-(hydroxymethyl)-2-methyl-2,3-dihydro-1H-pyrido[2,3-b][1,4]oxazin-1-yl)ethan-1-one] are 0.44 nM, 14 nM and 0.93 nM.
For `Cc1ccc([C@H]2COc3ncc(Cc4ccc(F)cc4)cc3N2C(=O)CN2C[C@@H](C)NC[C@@H]2CN2CCOC[C@H]2C)cc1` [Compound 30, 1-((S)-7-(4-fluorobenzyl)-2-(p-tolyl)-2,3-dihydro-1H-pyrido[2,3-b][1,4]oxazin-1-yl)-2-((2R,5R)-5-methyl-2-(((R)-3-methylmorpholino)methyl)piperazin-1-yl)ethan-1-one] the same measures were 0.35 nM, 7.3 nM and 0.72 nM.

As usually defined, the IC50 is the concentration that inhibits the measured activity by half.
